Measurements taken from PubChem BioAssay (NCI).
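Following 48 hours of exposure in 96-well plates, responses at five concentrations were used to interpolate endpoints linearly. GI50 is the concentration that inhibits growth by half. TGI: concentration producing complete growth inhibition.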

Columns and labels:
Assay in all cases: growth of human tumour cells (NCI), 48 h
COLO 205 colon = system: COLO 205 colon
OVCAR-3 ovarian = system: OVCAR-3 ovarian
MDA-MB-435 = system: MDA-MB-435
SF-539 CNS = system: SF-539 CNS
SK-MEL-5 melanoma = system: SK-MEL-5 melanoma
HCT-116 colon = system: HCT-116 colon
SN12C renal = system: SN12C renal
786-0 renal = system: 786-0 renal
HS 578T breast = system: HS 578T breast
EKVX NSCLC = system: EKVX NSCLC

| Compound | GI50 (COLO 205 colon) [µM] | TGI (COLO 205 colon) [µM] | GI50 (OVCAR-3 ovarian) [µM] | TGI (OVCAR-3 ovarian) [µM] | GI50 (MDA-MB-435) [µM] | TGI (MDA-MB-435) [µM] | GI50 (SF-539 CNS) [µM] | TGI (SF-539 CNS) [µM] | GI50 (SK-MEL-5 melanoma) [µM] | TGI (SK-MEL-5 melanoma) [µM] | GI50 (HCT-116 colon) [µM] | TGI (HCT-116 colon) [µM] | GI50 (SN12C renal) [µM] | TGI (SN12C renal) [µM] | GI50 (786-0 renal) [µM] | TGI (786-0 renal) [µM] | GI50 (HS 578T breast) [µM] | TGI (HS 578T breast) [µM] | GI50 (EKVX NSCLC) [µM] | TGI (EKVX NSCLC) [µM] |
| --- | --- | --- | --- | --- | --- | --- | --- | --- | --- | --- | --- | --- | --- | --- | --- | --- | --- | --- | --- | --- |
| O=C(COc1cccc(/C=C2\CSc3ccccc3C2=O)c1)Nc1nccs1 | 5.61 | 18.9 | 1.62 | 2.98 | 2.02 | 4.85 | 2.4 | 13.3 | 2.38 | 15.5 | 1.6 | 2.96 | 1.76 | 4.46 | 3.7 | 13 | 2.79 | 12.5 | 7.21 | 20.5 |
| CN(C)CCNC(=O)c1cccc2c1Oc1c(cccc1[N+](=O)[O-])O2 | – | 4.28 | – | 13.1 | – | 14.4 | – | 4.85 | – | 3.24 | – | 3.4 | – | 3.72 | – | 3.98 | – | 6.71 | – | 14.3 |
| O=C1Cc2cc(C(=O)NC3C[C@H]4CC[C@@H](C3)N4S(=O)(=O)CC3CCN(CCCC(F)(F)F)CC3)c(Cl)cc2N1 (stereo partly drawn) | 31.2 | > 100 | > 100 | > 100 | > 100 | > 100 | > 100 | > 100 | > 100 | > 100 | > 100 | > 100 | > 100 | > 100 | > 100 | > 100 | > 100 | > 100 | > 100 | > 100 |
| C#CCOc1ccc2ncnc(Nc3ccc(NC(=O)C=C)cc3)c2c1 | 15.6 | 91.5 | 8.24 | > 100 | 36.2 | > 100 | 9.76 | 39.6 | > 100 | > 100 | 10.9 | 35.9 | 44 | > 100 | 11.9 | 38.2 | 62 | > 100 | > 100 | > 100 |
| Cc1ccc(NC(=O)C(=O)CC(=O)c2sc(Nc3c(C)cccc3C)nc2C)cc1C | – | > 100 | – | > 100 | – | > 100 | – | > 100 | – | > 100 | – | > 100 | – | > 100 | – | > 100 | – | > 100 | – | > 100 |
| COc1cc2cc(Oc3ccc(NC(=O)Nc4ccc(Cl)c(Cl)c4)cc3)c(C)nc2cc1OC | 2.75 | 6.5 | 2.34 | 6.19 | 3.09 | 16.8 | 5.18 | 22.3 | 2.58 | 8.09 | 2.26 | 10.5 | 3.39 | 20.5 | 3.64 | 17.7 | 3.54 | 9.68 | 2.36 | 9.51 |
| O=c1[nH]cnc2c1nnn2CCCCCCCCCCCCn1nnc2c(=O)[nH]cnc21 | – | > 100 | – | > 100 | – | > 100 | – | 54.6 | – | > 100 | – | > 84.1 | – | > 100 | – | 60.5 | – | 60.7 | – | > 82.5 |
| NC(=S)c1c(N)n(C2OC(CO)C(O)C2O)c2ncnc(N)c12 (stereo not drawn) | 0.186 | 0.567 | 0.287 | 1.2 | 0.259 | 1.01 | 0.241 | 1.06 | 0.162 | 2.05 | 0.211 | – | 0.208 | > 100 | 0.304 | – | 0.223 | 0.648 | 0.345 | 11 |
| N=c1c2c(=N)n3c(nc2nc2n1-c1ccccc1Sc1ccccc1-2)sc1cc(Cl)ccc13 | 3.72 | 32.5 | 1.12 | 4.24 | 3.11 | > 100 | 5.07 | 30.6 | 1.12 | 4 | 1.86 | > 100 | 2.33 | 32.6 | 3.64 | > 100 | 1.78 | 7.01 | 1.24 | 7.46 |
| CC(=O)c1c(C)[nH]c(-c2nc3ccc(N4CCN(C)CC4)cc3[nH]2)c1-c1ccccc1 | 0.52 | 17.3 | 1.11 | 15 | 0.505 | 12.9 | 1.47 | 17.5 | 1.35 | 10.4 | 1.54 | 17.2 | 2.34 | 23.2 | 1.71 | 20.5 | 0.392 | 17.2 | 2.03 | > 100 |
| C=C1C(=O)OC2/C=C(/C)C(OC(C)=O)C/C=C(\C)C(OC(=O)C3(C)OC3C)C(O)C12 (stereo not drawn) | – | > 100 | – | > 100 | – | > 100 | – | > 100 | – | > 100 | – | > 100 | – | > 100 | – | > 100 | – | > 100 | – | > 100 |
| CN1C(=O)C2(c3ccccc31)N(c1ccc(Cl)cc1)C(=O)C2(c1ccccc1)c1ccccc1 (stereo not drawn) | 37.6 | > 100 | 20.2 | > 100 | > 100 | > 100 | > 100 | > 100 | 54.5 | > 100 | 9.57 | > 100 | 94.3 | > 100 | > 100 | > 100 | 21.4 | > 100 | 53.3 | > 100 |
| N#CC1c2ccccc2C=CN1C(=O)N(c1ccccc1)c1ccccc1 (stereo not drawn) | 1.83 | 3.43 | 1.76 | 3.18 | 1.74 | 3.81 | 4.69 | 17.9 | 4.03 | 14.8 | 2.05 | 4.35 | 3 | 10.8 | 4.32 | 15.2 | 3.14 | 13.7 | 5.7 | 18.9 |
